Legend:
[1] = tested on: BRV5CA1 cells (clones 424-2 and 424-8, silenced GRP94; Pool, non-silenced GRP94); assay: MTT cytotoxicity assay of taxotere on brain metastatic breast cancer cells with silenced or non-silenced GRP94; format: cell-based; details: clones 424-2 and 424-8 (silenced GRP94) vs pool, 1-10 ng/ml, 72 h
Description: To […], three sublines were used: Clones: 424-2 and 424-8 (silenced GRP94 [shGRP94]) and a Pool (non-silenced GRP94), from the metastatic variant BRV5Ca1.
For the cytotoxicity assay, each cell type was seeded in triplicate in a 96-well plate (Costar® 3596; Corning Incorporated) at a density of 6000 cells/well in 50 μL of complete medium (DMEM/F12 GIBCO® with serum). Twenty-four hours after seeding the cells, they were treated with taxotere (docetaxel >99%; LC Laboratories (www.LCLabs.com); Stock 200 mg/ml), at different concentrations in triplicate: 10-5-2.5-1 and 0 ng/ml, in a volume of 50 μL/well. Seventy-two hours after the start of the treatment, a cell viability assay MTT was carried out in which survival expressed as a percentage (%) was analyzed (FIG. 2). […]
After this time, the medium was removed from the wells and 50 μL of MTT [3-(4,5-dimethylthiazol-2-yl)-2,5-diphenyltetrazolium bromide; Sigma-Aldrich) were added per well, at a concentration of 5 mg MTT/ml of medium without serum. […] It was left to stir for 10-15 minutes (in the dark) and was then analyzed in the microplate spectrophotometer (PowerWave™ XS; BioTek) at a wavelength of 540 nm.
Absorbance values (OD) were obtained in triplicate for each of the treatment concentrations established. The calculated mean was expressed in reference to the control thereof (0 ng/ml), considered as the maximum survival value (100%).

[2] = tested on: xenotransplant of breast cancer metastasizing to the brain; assay: Effect of taxotere on growth of intramammary xenografts; format: in vivo; details: Athymic Nude-Foxn1nu mice, 15 mg/kg/day every 4 days for two weeks, vs carrier control, p=0.003
Description: A xenotransplant of breast cancer metastasizing to the brain provided by Dr. Eva Gonzalez was used to induce breast tumors in immunosuppressed Athymic Nude-Foxnlnu mice weighing 22-28 grams acquired from Charles-River Laboratories (Wilmington, Mass.) and to establish groups that are treated or not treated with taxotere following a previously established standard protocol of 15 mg/kg/day every 4 days for two weeks (Bin Gu et al., Carcinogenesis, 2004). The 2 mm^3 tumor fragment was implanted in the inguinal breast of female mice and 10 days were waited out for the graft to progress. After evaluating the volume of the tumor, treatment with taxotere was started, considering in each case a control group which was treated with the drug carrier.

[3] = tested on: brain metastases of breast cancer induced by BRV5CA1 cells; assay: Therapeutic effect on brain metastases induced by BRV5CA1 cells, luciferase emission monitored in vivo; details: female Athymic Nude-Foxn1nu mice, 50 mg/kg/d on consecutive days, after a week of treatment
Description: The therapeutic effect of lenalidomide was analyzed by treating the brain metastases of breast cancer induced by injecting BRV5CA1 cells labeled with the luciferase gene into female Athymic Nude-Foxnlnu mice (Martinez-Aranda A., Int. J. Mol. Sci. 2013, 14(4), 8306-8327). The treatment groups N=8 (lenalidomide 50 mg/kg/d on consecutive days) and the control group, in which carrier was injected, were established. The start of the treatment was established on day 14 after the graft and treatment was maintained for 15 days until the end of the experiment. The treatment was started on day 13 after induction and progression of the growth of metastasis was monitored in vivo by quantifying luciferase emission (photons per second) (FIG. 7). After a week of treatment, the difference in growth of the metastasis between the control group and the treated group was significant.

[4] = tested on: FN14; assay: Immunohistochemistry of FN14 expression in triple-negative breast carcinoma grafts treated with lenalidomide; format: in vivo; details: triple-negative breast carcinoma graft in immunosuppressed mice, vs carrier control, anti-FN14 immunohistochemistry
Text: Experimental tumors induced in the breast of immunosuppressed mice by implanting small biopsy fragments (2×2 mm) from patients with triple-negative breast carcinoma. An example of one of these grafts treated with lenalidomide (LND) with respect to the same graft treated with the carrier (control) is shown.
For expression studies, the immunohistochemistry technique with specific anti-FN14 antibodies (sc-27143, C-13, Santa Cruz Biotechnology) at a concentration of 1/3000 was used. Kidney and heart tissues were used as control tissues to view the expression in the cell membrane. The antigens were exposed by heating the preparations in a pressure cooker for 7 minutes in the suitable citrate buffer (Sanz et al., Am J Pathol, 179(2):564-579, 2011).
The primary antibody was diluted in the Dako diluent buffer (Dako, Glostrup, Denmark; Carpinteria, Calif.): Tris buffer, pH 7.2, 15 mmol/1 of NaN3. The LSAB peroxidase system (Dako), including biotinylated secondary antibody, followed by conjugated streptavidin, was used along with the ultraView detection kit (Ventana Benchmark XT, Roche, Tucson, Ariz.). The tumors were classified in three categories considering staining intensity: negative, weakly positive and strongly positive. Only those which are strongly positive in more than 30% of the tumor cells were considered with the overexpressed protein.

Row | Structure (SMILES) | survival of cells after treatment (percentage of survival with respect to the control) [1] | tumor growth (normalized volume divided by the initial volume) [2] | difference in growth of the metastasis between control group and treated group (luciferase emission, photons per second) [3] | expression of FN14 in tumor graft [4]
1 | CC(=O)O[C@@]12CO[C@@H]1C[C@H](O)[C@@]1(C)C(=O)[C@H](O)C3=C(C)[C@@H](OC(=O)[C@H](O)[C@@H](NC(=O)OC(C)(C)C)c4ccccc4)C[C@@](O)([C@@H](OC(=O)c4ccccc4)[C@H]21)C3(C)C [taxotere, N-debenzoyl-N-tert-butoxycarbonyl-10-deacetyl taxol] | significantly reduces the survival | tendency to grow less than that of the control | – | –
2 | CC(=O)O[C@H]1C(=O)[C@@]2(C)[C@H]([C@H](OC(=O)c3ccccc3)[C@]3(O)C[C@H](OC(=O)[C@H](O)[C@@H](NC(=O)c4ccccc4)c4ccccc4)C(C)=C1C3(C)C)[C@]1(OC(C)=O)CO[C@@H]1C[C@@H]2O [taxol, 11-methano-5H-cyclodeca[3,4]benz[1,2-b]oxete benzenepropanoic acid deriv.] | lower survival | – | – | –
3 | Nc1cccc2c1CN(C1CCC(=O)NC1=O)C2=O (centres unmarked) [lenalidomide] | – | – | significant | inhibition of the expression of FN14

From patent US20160223547A1, “MARKER FOR PREDICTING METASTASIS OF BREAST CANCER” (priority 2013, published 2016)
